“And” between values parts separate entries of the source, which are not always exact repeats. Identical values can stand only once. “Also recorded” adds a separate entry of the source. Like-named read-outs stand apart in the source and are kept apart here.
What was measured:
Format in all cases: cell-based
CNOX = molecular target: T1, CNOX (Mus musculus, UniProt Q8BHR2); test: CNOX activity of intact 4T1 cells; conditions: not effective up to and including this concentration
T1 construct: endogenous in cells; host or cells: 4T1 mouse mammary carcinoma cells (intact)
T1 sequence (Q8BHR2 1-643): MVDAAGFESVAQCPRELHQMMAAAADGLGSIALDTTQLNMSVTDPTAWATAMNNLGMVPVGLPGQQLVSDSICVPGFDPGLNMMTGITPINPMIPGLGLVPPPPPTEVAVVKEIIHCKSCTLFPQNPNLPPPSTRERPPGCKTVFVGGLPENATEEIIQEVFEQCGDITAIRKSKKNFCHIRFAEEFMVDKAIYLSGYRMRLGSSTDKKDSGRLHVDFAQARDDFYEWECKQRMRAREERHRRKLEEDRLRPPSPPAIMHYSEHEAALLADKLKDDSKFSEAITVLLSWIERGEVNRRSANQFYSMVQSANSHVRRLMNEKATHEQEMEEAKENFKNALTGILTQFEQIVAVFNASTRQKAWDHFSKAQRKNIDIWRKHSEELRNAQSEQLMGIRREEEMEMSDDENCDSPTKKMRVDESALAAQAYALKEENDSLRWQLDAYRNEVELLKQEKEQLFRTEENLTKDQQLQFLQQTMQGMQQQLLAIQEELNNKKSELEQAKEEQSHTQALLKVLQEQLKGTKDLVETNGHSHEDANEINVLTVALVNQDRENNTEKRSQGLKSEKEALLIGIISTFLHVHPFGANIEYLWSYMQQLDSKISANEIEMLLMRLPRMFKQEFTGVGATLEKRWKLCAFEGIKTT
Procedure: (§1) A mouse mammary tumor subpopulation line 4T1 arising from a BALB/cf C3H mouse was grown in DME-10, Dulbecco's modified Eagle's medium supplemented with 5% fetal calf serum, 5% newborn calf serum, 1 mM mixed non-essential amino acids, 2 mM L-glutamine, penicillin (100 units/ml), and streptomycin (100 μg/ml) (Miller et al., 1987, Brit. J. Can. 56:561-569 and Miller et al., 1990, Invasion Metastasis 10:101-112).
(§2) NADH oxidase activity was determined as the disappearance of NADH measured at 340 nm in a reaction mixture containing 25 mM Tris-Mes buffer (pH 7.2), 1 mM KCN, and 150 μM NADH at 37° C. Activity was measured at 340 nm with reference at 430 nm using an SLM Aminco DW-2000 spectrophotometer (Milton Roy, Rochester, N.Y.) in the dual beam mode of operation with stirring and continuous recording over two intervals of 5 min each. A millimolar extinction coefficient of 6.22 was used to determine specific activity.

[1] = system: MCF-10A human mammary epithelial (non-cancer) cells; test: Effect on intact cells in culture (growth, morphology, DAPI)
CHO cells = test: Growth of CHO cells; conditions: EGCg
[2] = molecular target: T2, tNOX activity of intact 4T1 mouse mammary cells (Mus musculus, UniProt Q8R0Z2); test: Inhibition of tNOX (NADH oxidase) activity of intact 4T1 cells
T2 construct: endogenous in cells; host or cells: 4T1 mouse mammary carcinoma cells (intact)
T2 sequence (Q8R0Z2 1-598): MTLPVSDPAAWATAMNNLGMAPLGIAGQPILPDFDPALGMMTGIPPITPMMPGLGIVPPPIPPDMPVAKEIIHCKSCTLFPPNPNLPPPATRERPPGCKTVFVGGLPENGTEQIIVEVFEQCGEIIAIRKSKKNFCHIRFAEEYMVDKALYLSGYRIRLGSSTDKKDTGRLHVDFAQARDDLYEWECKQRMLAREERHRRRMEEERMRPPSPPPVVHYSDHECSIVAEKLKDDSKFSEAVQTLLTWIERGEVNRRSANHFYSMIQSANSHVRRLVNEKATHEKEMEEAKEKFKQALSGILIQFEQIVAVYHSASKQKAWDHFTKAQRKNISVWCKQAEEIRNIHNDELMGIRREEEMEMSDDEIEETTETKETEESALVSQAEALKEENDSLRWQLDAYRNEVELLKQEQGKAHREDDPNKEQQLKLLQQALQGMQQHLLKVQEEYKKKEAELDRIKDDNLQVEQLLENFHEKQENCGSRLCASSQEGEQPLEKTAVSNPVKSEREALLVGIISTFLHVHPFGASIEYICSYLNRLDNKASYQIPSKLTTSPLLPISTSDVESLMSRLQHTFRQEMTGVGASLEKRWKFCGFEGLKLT
Procedure: as §1
as §2, with “measured” for “measured at 340 nm with reference at 430 nm”, “a Hitachi U3210” for “an SLM Aminco DW-2000”, “spectrophotometer” for “spectrophotometer (Milton Roy, Rochester, N.Y.) in the dual beam mode of operation”
as §2

[3] = system: HeLa (human cervical carcinoma) cells; test: Effect on intact cells in culture (growth, morphology, DAPI); conditions: for IC50: read-out: EGCg concentration for 50% growth arrest, FIG. 8
Procedure: HeLa (ATCC CCL2) cells were grown in 175 cm^2 flasks in Minimal Essential Medium (Gibco), pH 7.4, at 37° C. with 10% bovine calf serum (heat-inactivated), plus 50 mg/l gentamycin sulfate (Sigma). […] The coverslips were rinsed and the cells fixed in methanol followed by addition of fluorescent dye 4′,6-diamidino-2-phenylindole (DAPI) as described (Wolvetang et al., 1994, FEBS Lett. 339:40-44). Cells were observed and photographed at a primary magnification of 400×. HeLa (ATCC CCL2) cells were grown in 150 cm^2 flasks in Minimal Essential Medium (Gibco), pH 7.4, at 37° C. with 10% bovine calf serum (heat-inactivated), plus 50 mg/l gentamicin sulfate (Sigma).

[4] = system: 4T1 metastatic mouse mammary cancer cells; test: Killing of 4T1 metastatic mouse mammary cancer cells in culture; conditions: EGCg 10^−7 M, EC 10^−4 M, alone or combined
[5] = 10 μM EGCg added at t=0, 96 h, FIG. 4
[6] = 10^−6 M EGCg twice daily for 96 h

(−) - epigallocatechin gallate [EGCg]
Concentration effective in inhibiting the residual CNOX activity (CNOX): > 10^−6 M
Fate of treated cells [1, 5]: quickly recovered and eventually grew normally; also recorded: recovered fully
Growth rate and cell diameters [1, 6]: unaffected or slightly increased
Response of the cell line ([1]; 10^−6 M EGCg, 72 h): no response
Growth of cells ([1]; EGCg, unaffected except at very high doses of 10^−4 M, FIG. 2C): unaffected; also recorded: much less affected
Growth of CHO cells (CHO cells): much less affected
tNOX inhibition by EGCg, EC>90 ([2]; EC concentration 0 M): 10^−7 M
tNOX inhibition by EGCg, EC>90 ([2]; EC concentration 10^−4 M): 10^−8 M
tNOX inhibition by EGCg, EC>90 ([2]; EC concentration 10^−6 M): 10^−8 M
tNOX inhibition by EGCg, EC>90 ([2]; EC concentration 10^−8 M): 10^−7 M
EC50 ([2]; in the presence of 10^−4 M EC, read-out: EC50 for inhibition of the drug-responsive component of the plasma membrane NADH oxidase): 2 nM
EC50 ([2]; read-out: tNOX inhibition by EGCg, EC50, EC concentration 0 M): ~10 nM and 10 nM
EC50 ([2]; read-out: tNOX inhibition by EGCg, EC50, EC concentration 10^−4 M): 0.5 nM
EC50 ([2]; read-out: tNOX inhibition by EGCg, EC50, EC concentration 10^−6 M): 1 nM
EC50 ([2]; read-out: tNOX inhibition by EGCg, EC50, EC concentration 10^−8 M): 10 nM
Enhancement of the efficacy of EGCg inhibition ([2]; with both 10^−6 and 10^−4 M EC): ≥ 10 fold
Fate of treated cells [3, 5]: did not recover and died; also recorded: stopped growing and died
Reduction of cell diameter [3, 6]: about 25%
Reduction of cell number [3, 6]: about 25%
Reduction of cell volume [3, 6]: 50%
Response of the cell line ([3]; 10^−6 M EGCg, 72 h): no response
Condensed chromatin (DAPI staining) ([3]; 10 or 50 μM EGCg, 96 h, FIG. 5): characteristic of apoptosis
Growth of HeLa cells ([3]; EGCg): almost completely inhibited
IC50 ([3]; 72 h, in the absence of EC): 10000 nM
IC50 ([3]; 72 h, in the presence of 10^−4 M EC): 100 nM
Increase in cell number cm^−2 over 72 h · 10^2 [4]: 520 cm^−2 · 10^2

Source: patent publication US6652890B2, “Tea catechins as cancer specific proliferation inhibitors” (Purdue Research Foundation, priority 1999, dated 2003)
